According to paper PMC11317440, “Soloxolone para-methylanilide effectively suppresses aggressive phenotype of glioblastoma cells including TGF-β1-induced glial-mesenchymal transition in vitro and inhibits growth of U87 glioblastoma xenografts in mice” (Frontiers in Pharmacology, 2024):

Experiments:
[1] = test system: U87 glioblastoma xenograft; assay: U87 glioblastoma xenograft model; type: in vivo, athymic nude mice; details: 7 20 mg/kg i.p.
Procedure: A xenograft model of tumor progression was induced by subcutaneous (s.c.) implantation of U87 glioblastoma cells (2×10^7 cells/mL) suspended in 0.1 mL of saline buffer into the left flank of athymic nude mice. On day 4 after tumor transplantation, the mice were divided into four groups: (1) mice received intraperitoneal (i.p.) injections of 10% Tween-80 (vehicle) (n = 6); (2) mice received i.p. injections of compound 7 in 10% Tween-80 at a dose of 20 mg/kg (n = 5); (3) mice received i.p. injections of TMZ in saline buffer at a dose of 10 mg/kg (n = 5); (4) mice received combination therapy of compound 7 and TMZ at the same dosage and administration route (n = 6). Compound 7 was administered three times per week; in total seven injections were performed. TMZ was administered daily except weekends; in total eleven injections were performed. During the experiment, the tumor volumes were determined three times per week using caliper measurements and were calculated as V = (D × d^2)/2, where D is the longest diameter of the tumor node and d is the shortest diameter of the tumor node perpendicular to D. Mice were sacrificed on day 19 after tumor transplantation and material (tumor nodes, livers, and kidneys) was collected for subsequent analysis.

[2] = test system: TGF-β1-induced U118 cells; assay: Cell morphology (aspect ratio) of TGF-β1-induced U118 cells; type: cell-based, human; details: TGF-β1 50 ng/mL, 7 50 nM, 48 h
Procedure: After seeding at a concentration of 5,000 cells/well in triplicate in 96-well plates and incubating overnight, U87 and U118 cells were exposed to TGF-β1 (50 ng/mL) and non-toxic concentrations of soloxolone amides for 48 h. An EVOS XL Core microscope with an integrated CMOS camera (Thermo Fisher Scientific, USA) was then used to examine cell morphology at ×20 magnification. Aspect ratio (AR) and area were quantified for at least 150 cells in each experimental group using ImageJ software (NIH, USA).

U118 glioblastoma cells = assay: MTT cell viability assay, U118 cells, 48 h; type: cell-based; details: Homo sapiens
Procedure: Cells were seeded in quadruplicate in 96-well plates at 10,000 cells/well and allowed to adhere overnight. The medium was then replaced with serum-free DMEM containing increasing concentrations of soloxolone amides for 48 h. After incubation, 3-(4,5-dimethylthiazol-2-yl)-2,5-diphenyltetrazolium bromide (MTT dye) was added at a final concentration of 0.5 mg/mL and left for 2 h. The resulting formazan crystals were dissolved in DMSO and the optical density was measured at 570 nm using a Multiscan RC plate reader (Thermo LabSystems, Helsinki, Finland).

TGF-β1-treated U87 cells = assay: Transwell migration (xCELLigence), U87 cells; type: cell-based, human; details: U87, 7 50 nM, TGF-β1 50 ng/mL, at 72 h
Procedure: To perform transwell migration, U87 cells were pretreated with TGF-β1 (50 ng/mL) and compound 7 (50 nM) for 48 h. Subsequently, 250,000 cells were placed in the upper chamber of the CIM-16 xCELLigence plate in serum-free DMEM supplemented with compound 7 and TGF-β1 (n = 4), while the lower chamber was filled with DMEM containing 10% FBS. Cell migration was monitored for 72 h using the xCELLigence RTCA DP system (ACEA Biosciences Inc., San Diego, CA, USA). The electrodes placed under the porous membrane detected changes in resistance, which were then converted into cell indices proportional to the number of migrating cells.

[3] = test system: aldehyde dehydrogenase (ALDH) activity in U87 primary tumorspheres; assay: ALDH activity in U87 tumorspheres (AldeRed, flow cytometry); type: cell-based, human; details: 7 at 50 and 100 nM, regardless of the dose, 4 days
Procedure: To assess ALDH activity, U87 cells were dissociated from spheroids using TrypLE Express after 4 days of induction with compound 7 (0–100 nM) (n = 3). Cells were then stained with the AldeRed ALDH Detection Assay (SCR150; EMD Millipore, Burlington, MA, USA) according to the manufacturer’s protocol. Experimental controls included U87 cells grown in 2D culture and cells treated with the ALDH inhibitor diethylaminobenzaldehyde (DEAB). Gates of ALDH-positive cells were set according to the inhibitory effect of DEAB on control cells.
After staining, 10,000 cells per sample were analyzed on a NovoCyte flow cytometer using NovoExpress software (ACEA Biosciences, Inc., USA).

[4] = test system: U87 glioblastoma tumor tissue; assay: Histology and immunohistochemistry of U87 xenograft tumors; type: in vivo, athymic nude mice; details: day 19
Procedure: For the histological study, the tumor specimens were fixed in 10% neutral-buffered formalin (BioVitrum, Moscow, Russia), dehydrated in ascending ethanols and xylols and embedded in HISTOMIX paraffin (BioVitrum, Russia). The paraffin sections (3–4 µm) were sliced on a Microm HM 355S microtome (Thermo Fisher Scientific, Waltham, MA, USA) and stained with hematoxylin and eosin.
For the immunohistochemical study, the tumor sections were deparaffinized and rehydrated. Antigen retrieval was carried out after exposure in a microwave oven at 700 W. The samples were incubated with anti-Ki-67 (ab16667, Abcam, Boston, MA, USA) (n = 3), anti-GFAP (ab194325, Abcam, USA) (n = 3), and anti-N-cadherin (ab76011, Abcam, USA) (n = 3) primary antibodies according to the manufacturer’s protocol. Then, the sections were incubated with secondary horseradish peroxidase (HPR)-conjugated antibodies, exposed to the 3,30-diaminobenzidine (DAB) substrate (Rabbit Specific HRP/DAB (ABC) Detection IHC Kit, ab64261, Abcam, USA) and stained with Mayer’s hematoxylin.
Five to ten random fields were examined from the tumor specimens of three mice in each group, for a total of 15–30 test fields.

[5] = test system: U87 secondary tumorspheres; assay: Secondary tumorsphere formation, U87; type: cell-based, human
Procedure: For evaluation of spheroid growth, the bottom of the 96-well plate was covered with 1% agarose for non-adherent conditions. U87 cells (5,000 cells/well) were then seeded and allowed to form spheroids for 24 h, after which increasing concentrations of compound 7 (0–1,000 nM) were added (n = 8). Every other day of the 10-day experiment, fresh medium supplemented with compound 7 was added to half of the medium, and the spheroids were photographed using a camera-equipped ZEISS Primo Vert microscope (Carl Zeiss Microscopy GmbH, Jena, Germany). To assess the formation of secondary tumorspheres, cells were dissociated from primary tumorspheres after 4 days of compound 7 stimulation using TrypLE Express and were then seeded into agarose-coated 96-well plates (n = 8). On day 3, the resulting secondary spheroids were examined microscopically. Primary and secondary spheroid areas were quantified using ImageJ.

Cc1ccc(NC(=O)[C@@]2(C)CC[C@]3(C)CC[C@]4(C)[C@H](C(=O)C=C5[C@@]6(C)C=C(C#N)C(=O)C(C)(C)C6CC[C@]54C)[C@@H]3C2)cc1 (stereo partly drawn) [compound 7, N-p-tolyl-2-cyano-3,12-dioxo-18βH-olean-9(11),1(2)-dien-30-amide]
reduction in tumor volume compared to the vehicle group ([1]; day 11): 2.1 fold
reduction in tumor volume compared to the vehicle group ([1]; day 13): 3.2 fold
reduction in tumor volume compared to the vehicle group ([1]; day 15, TMZ 10 mg/kg i.p.): 6.6 fold
reduction in tumor volume compared to the vehicle group ([1]; day 18, TMZ 10 mg/kg i.p.): 7.2 fold
reduction in tumor weight compared to the vehicle ([1]; end of the experiment (day 19), TMZ 10 mg/kg i.p.): 8 fold
shape (aspect ratio) of TGF-β1-induced U118 cells [2]: restored the shape of TGF-β1-induced cells to that of the control cells
IC50 (U118 glioblastoma cells): 0.31 µM
suppression of transwell migration compared to cells stimulated with TGF-β1 alone (TGF-β1-treated U87 cells): 1.7 fold
reduction of the number of ALDH+ cells compared to the control [3]: 2.3 fold
N-cadherin and GFAP levels in tumor sections (immunohistochemistry) [4]: significantly reduced their levels
reduction in the numerical density of Ki-67-positive cells compared to vehicle [4]: 4 fold
increase of secondary tumorsphere area ([5]; U87, 7 50 nM for 4 days, p-value <0.01): 22.6%
increase of secondary tumorsphere area ([5]; U87, 7 100 nM for 4 days, not statistically significant): 6.6%
decrease of secondary tumorsphere area ([5]; U87, 7 450 nM for 4 days): 23.9%
decrease of secondary tumorsphere area ([5]; U87, 7 1,000 nM for 4 days): 84.1%
